Data as given in patent US5753715A, “2-disubstituted cyclohexenyl and cyclohexyl antimicrobial agents” (Ortho Pharmaceutical Corporation, priority 1995, dated 1998).
≈ marks a conversion by molar mass, not a printed value.

How the values were obtained:
S. epi oc2603 = assay: MIC, microdilution broth method (NCCLS); type: cell-based; design: unit not given here; conditions: cation supplemented Mueller Hinton broth, 35° C., 16-20 hours
Description: (§1) The in vitro antimicrobial spectrum of the compounds of the present invention were determined by the microdilution broth method following the test method from the National Committee for […] (NCCLS ). The method is described in the NCCLS Document M7-A2, Vol. 10, No.8 "Methods for Dilution Antimicrobial Susceptibility Test for Bacteria that Grow Aerobically--Second Edition".
(§2) In this method two fold serial dilutions of drug in cation supplemented Mueller Hinton broth are added to wells in microdilution trays. The test organisms are prepared by adjusting the turbidity of actively growing broth cultures so that the final concentration of test organism after it is added to the wells is approximately 5×10^4 colony forming units per well delivered by the Steers replicating device.
(§3) Following inoculation of the microdilution trays, the trays are incubated at 35° C. for 16-20 hours and then read. […] The amount of growth in the wells containing the test compound is compared with the amount of growth in the growth-control wells used in each tray.

Kinase A and SpoOF = target: T1, Kinase A and SpoOF (Bacillus subtilis, UniProt P16497); assay: Autophosphorylation of Kinase A and Transphosphorylation of SPoOF Assay; type: biochemical; conditions: inhibition of Kinase A autophosphorylation / SpoOF transphosphorylation, [32P]ATP, gel, phosphoimager
T1 sequence (P16497 1-606): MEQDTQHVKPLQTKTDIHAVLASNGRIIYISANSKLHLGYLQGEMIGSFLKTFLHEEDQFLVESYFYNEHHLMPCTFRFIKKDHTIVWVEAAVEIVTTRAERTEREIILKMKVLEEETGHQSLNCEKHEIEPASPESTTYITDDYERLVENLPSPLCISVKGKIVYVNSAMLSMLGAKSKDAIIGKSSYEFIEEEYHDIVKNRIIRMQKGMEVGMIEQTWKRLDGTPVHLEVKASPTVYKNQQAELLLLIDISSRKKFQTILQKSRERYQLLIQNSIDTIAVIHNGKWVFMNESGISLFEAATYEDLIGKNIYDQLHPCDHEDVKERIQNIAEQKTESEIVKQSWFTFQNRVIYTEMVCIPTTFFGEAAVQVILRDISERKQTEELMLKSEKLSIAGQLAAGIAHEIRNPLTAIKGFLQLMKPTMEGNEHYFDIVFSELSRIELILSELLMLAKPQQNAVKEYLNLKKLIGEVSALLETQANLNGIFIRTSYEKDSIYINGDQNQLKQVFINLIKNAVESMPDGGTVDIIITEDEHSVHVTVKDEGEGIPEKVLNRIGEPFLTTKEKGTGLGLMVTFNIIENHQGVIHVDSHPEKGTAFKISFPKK

K. pneum. oc1943 = assay: MIC, microdilution broth method (NCCLS); type: cell-based; conditions: cation supplemented Mueller Hinton broth, 35° C., 16-20 hours; unit assumed
Description: as §1, §2, §3

E. coli oc2530 = assay: MIC, microdilution broth method (NCCLS); type: cell-based; conditions: cation supplemented Mueller Hinton broth, 35° C., 16-20 hours; unit assumed
Description: as §1, §2, §3

MRSA oc667 = assay: MIC, microdilution broth method (NCCLS); type: cell-based; conditions: cation supplemented Mueller Hinton broth, 35° C., 16-20 hours; unit assumed
Description: as §1, §2, §3

C. albicans 10231 = assay: MIC, microdilution broth method (NCCLS); type: cell-based; conditions: cation supplemented Mueller Hinton broth, 35° C., 16-20 hours; unit assumed
Description: as §1, §2, §3

Ps. aerug. oc27853 = assay: MIC, microdilution broth method (NCCLS); type: cell-based; conditions: cation supplemented Mueller Hinton broth, 35° C., 16-20 hours; unit assumed
Description: as §1, §2, §3

E. faecalis ACTCC 29212 = assay: MIC, microdilution broth method (NCCLS); type: cell-based; conditions: cation supplemented Mueller Hinton broth, 35° C., 16-20 hours; unit assumed
Description: as §1, §2, §3

MRSA oc2089 = assay: MIC, microdilution broth method (NCCLS); type: cell-based; conditions: cation supplemented Mueller Hinton broth, 35° C., 16-20 hours; unit assumed
Description: as §1, §2, §3

A. niger 10578 = assay: MIC, microdilution broth method (NCCLS); type: cell-based; conditions: cation supplemented Mueller Hinton broth, 35° C., 16-20 hours; unit assumed
Description: as §1, §2, §3

E. coli oc2605 = assay: MIC, microdilution broth method (NCCLS); type: cell-based; conditions: cation supplemented Mueller Hinton broth, 35° C., 16-20 hours; unit assumed
Description: as §1, §2, §3

S. aureus ATCC 29213 = assay: MIC, microdilution broth method (NCCLS); type: cell-based; conditions: cation supplemented Mueller Hinton broth, 35° C., 16-20 hours; unit assumed
Description: as §1, §2, §3

C. tropicalis = assay: MIC, microdilution broth method (NCCLS); type: cell-based; conditions: cation supplemented Mueller Hinton broth, 35° C., 16-20 hours; unit assumed
Description: as §1, §2, §3

E. faecalis oc3041 = assay: MIC, microdilution broth method (NCCLS); type: cell-based; conditions: cation supplemented Mueller Hinton broth, 35° C., 16-20 hours; unit assumed
Description: as §1, §2, §3

Ps. aerug. oc161 = assay: MIC, microdilution broth method (NCCLS); type: cell-based; conditions: cation supplemented Mueller Hinton broth, 35° C., 16-20 hours; unit assumed
Description: as §1, §2, §3

E. faecium oc2993 = assay: MIC, microdilution broth method (NCCLS); type: cell-based; conditions: cation supplemented Mueller Hinton broth, 35° C., 16-20 hours; unit assumed
Description: as §1, §2, §3

Structure (SMILES) | MIC S. epi oc2603 (S. epi oc2603) | IC50 (Kinase A and SpoOF) [mM] | IC min (Kinase A and SpoOF) [mM] | MIC K. pneum. oc1943 (K. pneum. oc1943) [µg/mL] | MIC E. coli oc2530 (E. coli oc2530) [µg/mL] | MIC MRSA oc667 (MRSA oc667) [µg/mL] | MIC C. albicans 10231 (C. albicans 10231) [µg/mL] | MIC Ps. aerug. oc27853 (Ps. aerug. oc27853) [µg/mL] | MIC E. faecalis ACTCC 29212 (E. faecalis ACTCC 29212) [µg/mL] | MIC MRSA oc2089 (MRSA oc2089) [µg/mL] | MIC A. niger 10578 (A. niger 10578) [µg/mL] | MIC E. coli oc2605 (E. coli oc2605) [µg/mL] | MIC S. aureus ATCC 29213 (S. aureus ATCC 29213) [µg/mL] | MIC C. tropicalis (C. tropicalis) [µg/mL] | MIC E. faecalis oc3041 (E. faecalis oc3041) [µg/mL] | MIC Ps. aerug. oc161 (Ps. aerug. oc161) [µg/mL] | MIC E. faecium oc2993 (E. faecium oc2993) [µg/mL]
Clc1ccc(CC2(CCOc3ccc(CCNCCN4CCCC4)cc3)C=CCCC2)cc1 (stereo not shown) [Compound 34] | 4 | 295 | 125 | 32 (≈ 68.5 µM) | 4 (≈ 8.56 µM) | 4 (≈ 8.56 µM) | 8 (≈ 17.1 µM) | > 64 | 4 (≈ 8.56 µM) | 4 (≈ 8.56 µM) | 8 (≈ 17.1 µM) | 8 (≈ 17.1 µM) | 4 (≈ 8.56 µM) | ≤ 4 | 4 (≈ 8.56 µM) | > 64 | 4 (≈ 8.56 µM)
COc1ccc(CC2(CCOc3ccc(CCN)cc3)C=CCCC2)cc1 (stereo not shown) [Compound 41] | 8 | 82.5 | 31.25 | > 128 | 4 (≈ 10.9 µM) | 8 (≈ 21.9 µM) | 8 (≈ 21.9 µM) | > 128 | 8 (≈ 21.9 µM) | 8 (≈ 21.9 µM) | 2 (≈ 5.47 µM) | > 64 | 8 (≈ 21.9 µM) | 4 (≈ 10.9 µM) | 8 (≈ 21.9 µM) | > 128 | 8 (≈ 21.9 µM)
NCCCc1cnc(NCCC2(Cc3ccccc3)C=CCCC2)nc1 (stereo not shown) [Compound 49] | 16 | 162 |  | 128 (≈ 365 µM) | 16 (≈ 45.6 µM) | 32 (≈ 91.3 µM) | 32 (≈ 91.3 µM) | 128 (≈ 365 µM) | 32 (≈ 91.3 µM) | 32 (≈ 91.3 µM) | 16 (≈ 45.6 µM) | 128 (≈ 365 µM) | 64 (≈ 183 µM) | 16 (≈ 45.6 µM) | 32 (≈ 91.3 µM) | 128 (≈ 365 µM) | 32 (≈ 91.3 µM)
COc1ccc(CC2(CCOc3ccc(CCCNC(=N)N)cc3)C=CCCC2)cc1 (stereo not shown) [Compound 53] | 8 | 113 |  | > 128 | 16 (≈ 38 µM) | 8 (≈ 19 µM) | 4 (≈ 9.49 µM) | > 128 | 4 (≈ 9.49 µM) | 4 (≈ 9.49 µM) | 8 (≈ 19 µM) | > 64 | 4 (≈ 9.49 µM) | 2 (≈ 4.74 µM) | 8 (≈ 19 µM) | > 128 | 8 (≈ 19 µM)
NCCc1ccc(OCCC2(Cc3cc(Cl)cc(Cl)c3)C=CCCC2)cc1 (stereo not shown) [Compound 59] | 8 | 46.1 |  | > 128 | 16 (≈ 39.6 µM) | 8 (≈ 19.8 µM) | 8 (≈ 19.8 µM) | > 128 | 8 (≈ 19.8 µM) | 8 (≈ 19.8 µM) | 44 (≈ 109 µM) | ≥ 64 | 8 (≈ 19.8 µM) | 8 (≈ 19.8 µM) | 8 (≈ 19.8 µM) | > 128 | 8 (≈ 19.8 µM)
